Data from patent publication US20200157135A1, “SIDE-CHAIN MODIFIED ERGOSTEROL AND STIGMASTEROL DERIVATIVES AS LIVER X RECEPTOR MODULATORS” (Ospedale San Raffaele srl, priority 2017, published 2020).
Where two headings read alike, the source gives them in different places.

What was measured:
[1] = molecular target: T1, hLXRα (Homo sapiens, UniProt Q13133); experiment: luciferase assay with GAL-4 chimeric hLXRα receptor in human embryonic kidney 293 cells; type: cell-based; details: for Emax: HEK293, 24 h, read-out: LXRα Efficacy (%) ± SD; for LXR isoform selectivity profile: LXRα versus LXRβ, GAL4 luciferase assays
T1 sequence (Q13133 209-447 limits assumed): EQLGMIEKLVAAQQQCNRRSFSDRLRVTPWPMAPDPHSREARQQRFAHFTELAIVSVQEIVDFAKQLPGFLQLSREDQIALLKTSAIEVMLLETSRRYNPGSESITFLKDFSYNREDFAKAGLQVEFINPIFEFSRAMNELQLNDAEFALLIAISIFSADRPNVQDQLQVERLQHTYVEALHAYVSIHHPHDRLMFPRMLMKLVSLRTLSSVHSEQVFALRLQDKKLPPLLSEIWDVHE
Protocol: (§1) All the synthesized compounds were first tested for their ability to activate LXRs by using luciferase assays with GAL-4 chimeric receptors. These were performed by co-transfecting plasmids encoding hLXRα- and β-binding domains fused to GAL-4, with the respective responsive element conjugated with the luciferase reporter gene into the human embryonic kidney 293 cells.
(§2) Cell Culture and Co-transfection Assays. Human embryonic Kidney 293 cells (American Type Culture Collection) were cultured in Dulbecco's Modified Eagle's medium containing 10% of fetal bovine serum at 37° C. in humidified atmosphere of 5% CO2. HEK293 cells (4×10^4 cells per well) were transiently transfected in 48 well plate with the reporter plasmids pMH100X4-TK-luc (100 ng/well), Renilla (22 ng/well) together with 100 ng/well of pCMX-Gal4-RXR, pCMX-Gal4-PPAR-γ, pCMX-Gal4-PXR, pFA-CMV-FXR pCMX-Gal4-LXR-α or pCMX-Gal4-LXR-β plasmids using X-tremeGENE 9 DNA Transfection Reagent (Roche). Six hours after transfection, the cells were treated with the appropriate compound for 24 hours. Luciferase activities were analyzed by luciferase Dual Reporter Assay Systems (Promega) according to the manufacturer's protocol. GAL4-LXRs, GAL4-PPAR-γ, GAL4-RXR and TK-MHC100-luc plasmids were described in Villablanca et al.49 GAL4-PXR was a kind gift of Dr. Enrique Sainz (The Scripps Research Institute, La Jolla, USA). GAL4-FXR was a kind gift of Dr. Daniel Merk (Goethe-University Frankfurt am Main). The results obtained by luciferase assays and reported in Table 1 are from three to five independent experiments.
(§3) Statistical analysis. Data are expressed as mean±SEM and were analyzed for significance by ANOVA with Dunnet's multiple comparison tests. The analysis was performed with Prism software. Data in Table 1 are expressed as EC50±SD. In particular, the standard deviations were obtained by calculating the mean of the EC50 of each experiment (three to five independent experiments). The efficacy (%) of the compounds was calculated as the percentage of the compound effect, in terms of LXRα or β activation, versus 8 μM of 22R—HC±SD. The analyses were performed with Prism software.

[2] = molecular target: T2, hLXRβ (Homo sapiens, UniProt P55055); experiment: luciferase assay with GAL-4 chimeric hLXRβ receptor in human embryonic kidney 293 cells; type: cell-based; details: for Emax: HEK293, 24 h, read-out: LXRβ Efficacy (%) ± SD, % of compound effect versus 8 μM of 22R-HC; for beta/alfa efficacy ratio: LXRβ efficacy over LXRα efficacy
T2 sequence (P55055 222-460 limits assumed): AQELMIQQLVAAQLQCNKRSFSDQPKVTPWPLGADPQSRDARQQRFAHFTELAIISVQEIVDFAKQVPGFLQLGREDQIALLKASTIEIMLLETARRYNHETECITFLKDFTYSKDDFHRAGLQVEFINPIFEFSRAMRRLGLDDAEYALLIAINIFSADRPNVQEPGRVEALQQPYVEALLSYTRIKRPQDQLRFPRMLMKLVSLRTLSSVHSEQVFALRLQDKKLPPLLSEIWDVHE
Protocol: as §1, §2, §3

[3] = GAL4-hLXRα luciferase, HEK293, dose-response 32-1 μM, mean of three-five independent experiments, read-out: LXRα EC50 (μM) ± SD
[4] = % of compound effect versus 8 μM of 22R-HC

C=C[C@@](O)(CC[C@@H](C)C1CCC2C3CC=C4C[C@@H](O)CC[C@]4(C)C3CC[C@@]21C)C(C)C (stereo partly drawn) [Compound 12, 24(S)-saringosterol, reference compound]
Emax [1]: 43.4 ± 17.6% | Emax [2]: 61 ± 17.4% | beta/alfa efficacy ratio [2]: 1.4

CC[C@@H](C(C)C)[C@@H]1O[C@H]1[C@@H](C)[C@H]1CC[C@H]2[C@@H]3CC=C4C[C@@H](O)CC[C@]4(C)[C@H]3CC[C@]12C [Compound 14, (22S,23S)-22,23-Epoxystigmast-5-ene-3β-ol]
EC50 [1, 3]: 16.4 ± 0.62 µM | Emax [1]: 56.8 ± 4.6% | EC50 ([2]; GAL4-hLXRβ luciferase, HEK293, dose-response 32-1 μM, mean of three-five independent experiments, read-out: LXRβ EC50 (μM) ± SD): 12.7 ± 2.7 µM | Emax [2]: 36.3 ± 3%

CC(C)[C@@H](C)[C@H](O)C[C@@H](C)[C@H]1CC[C@H]2C3=CC=C4C[C@@H](O)CC[C@]4(C)[C@H]3CC[C@]12C [Compound 23, (23R)-3β-Ergost-5,7-diene-3,23-diol]
EC50 [1, 3]: 15.8 ± 0.65 µM | Emax [1, 4]: 63.9 ± 26.9%

CC(C)[C@@H](C)C(=O)C[C@@H](C)[C@H]1CC[C@H]2C3=CC=C4C[C@@H](O)CC[C@]4(C)[C@H]3CC[C@]12C [Compound 27, 3β-Hydroxyergost-5,7-diene-23-one]
EC50 [1, 3]: 5.58 ± 0.3 µM | Emax [1, 4]: 151 ± 4.8% | LXR isoform selectivity profile [1]: selective LXRα agonists

CC(C)[C@@H](C)CC(=O)[C@@H](C)[C@H]1CC[C@H]2C3=CC=C4C[C@@H](O)CC[C@]4(C)[C@H]3CC[C@]12C [Compound 28, 3β-Hydroxyergost-5,7-diene-22-one]
EC50 [1, 3]: 8.51 ± 0.42 µM | Emax [1, 4]: 70.2 ± 3.9% | LXR isoform selectivity profile [1]: selective LXRα agonists

CC[C@](O)(CC[C@@H](C)[C@H]1CCC2C3CC=C4C[C@@H](O)CC[C@]4(C)C3CC[C@@]21C)C(C)C (some centres unmarked) [Compound 29]
EC50 [1]: 3.72 ± 0.5 µM | Emax [1]: 11 ± 4.08% | EC50 [2]: 3.21 ± 0.6 µM | Emax [2]: 48.4 ± 5% | beta/alfa efficacy ratio [2]: 4.4
